This is an account of results in article PMC8079283 (The Journal of Biological Chemistry, 2021).

In this assay the target is T1, NUDT15 (Homo sapiens, UniProt Q9NV35).
T1 sequence (Q9NV35 1-164): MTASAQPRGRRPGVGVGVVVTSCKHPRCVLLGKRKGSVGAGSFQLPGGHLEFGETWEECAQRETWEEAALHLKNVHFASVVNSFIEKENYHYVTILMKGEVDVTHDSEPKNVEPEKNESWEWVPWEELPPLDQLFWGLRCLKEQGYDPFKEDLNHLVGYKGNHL
The assay can be described thus: X-ray crystal structure. Type of assay: biochemical.

`C[C@@H]1CN(C(=O)c2ccc3c(ccn3C)c2)CCN1S(=O)(=O)c1ccc2[nH]c(=O)oc2c1` [compound 6, (R)-6-((2-methyl-4-(1-methyl-1H-indole-5-carbonyl)piperazin-1-yl)sulfonyl)benzo[d]oxazol-2(3H)-one] returned a Ki of 10.2 ± 0.9 nM.
